# Experimental data taken from PubChem BioAssay (NCI).
#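 Test compounds were applied to cells in 96-well plates for 48 hours at 5 doses. Abbreviation: GI50, concentration required for 50% inhibition of growth. At the TGI there is no net growth.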
# Assays:
# Test in all cases: NCI tumour cell line growth inhibition, 48 h
# LOX IMVI melanoma = tested on: LOX IMVI melanoma
# HOP-92 NSCLC = tested on: HOP-92 NSCLC
# RPMI-8226 leukemia = tested on: RPMI-8226 leukemia
# K-562 leukemia = tested on: K-562 leukemia
# HT29 colon = tested on: HT29 colon
# EKVX NSCLC = tested on: EKVX NSCLC
# HCC-2998 colon = tested on: HCC-2998 colon
# UACC-62 melanoma = tested on: UACC-62 melanoma
# SF-539 CNS = tested on: SF-539 CNS
# A498 renal = tested on: A498 renal
# TK-10 renal = tested on: TK-10 renal
# SNB-19 CNS = tested on: SNB-19 CNS
# SF-295 CNS = tested on: SF-295 CNS
# KM12 colon = tested on: KM12 colon
# HS 578T breast = tested on: HS 578T breast
# HCT-15 colon = tested on: HCT-15 colon
# ACHN renal = tested on: ACHN renal
# NCI-H460 lung = tested on: NCI-H460 lung
# M14 melanoma = tested on: M14 melanoma
# SR leukemia = tested on: SR leukemia
# HL-60(TB) leukemia = tested on: HL-60(TB) leukemia
# IGROV1 ovarian = tested on: IGROV1 ovarian
# NCI-H522 lung = tested on: NCI-H522 lung
# RXF 393 renal = tested on: RXF 393 renal
# OVCAR-5 ovarian = tested on: OVCAR-5 ovarian
# UACC-257 melanoma = tested on: UACC-257 melanoma
# HCT-116 colon = tested on: HCT-116 colon
# MDA-MB-435 = tested on: MDA-MB-435
# DU-145 prostate = tested on: DU-145 prostate
# SK-MEL-2 melanoma = tested on: SK-MEL-2 melanoma
# BT-549 breast = tested on: BT-549 breast
# SF-268 CNS = tested on: SF-268 CNS
# OVCAR-3 ovarian = tested on: OVCAR-3 ovarian
# SK-OV-3 ovarian = tested on: SK-OV-3 ovarian
# PC-3 prostate = tested on: PC-3 prostate
# U251 CNS = tested on: U251 CNS
# CAKI-1 renal = tested on: CAKI-1 renal
# OVCAR-8 ovarian = tested on: OVCAR-8 ovarian
# SN12C renal = tested on: SN12C renal
# SK-MEL-28 melanoma = tested on: SK-MEL-28 melanoma
# HOP-62 NSCLC = tested on: HOP-62 NSCLC
# SW-620 colon = tested on: SW-620 colon
# NCI-H23 lung = tested on: NCI-H23 lung
# CCRF-CEM leukemia = tested on: CCRF-CEM leukemia
# OVCAR-4 ovarian = tested on: OVCAR-4 ovarian
# A549 NSCLC = tested on: A549 NSCLC
# NCI/ADR-RES ovarian = tested on: NCI/ADR-RES ovarian
# T-47D breast = tested on: T-47D breast
# SK-MEL-5 melanoma = tested on: SK-MEL-5 melanoma
# UO-31 renal = tested on: UO-31 renal
# SNB-75 CNS = tested on: SNB-75 CNS
# MALME-3M melanoma = tested on: MALME-3M melanoma
# COLO 205 colon = tested on: COLO 205 colon
# MDA-MB-231 breast = tested on: MDA-MB-231 breast
# MCF7 breast = tested on: MCF7 breast
# MOLT-4 leukemia = tested on: MOLT-4 leukemia
# NCI-H226 lung = tested on: NCI-H226 lung
# 786-0 renal = tested on: 786-0 renal
smiles,measurement,setting,value
COc1cc(/C=C/C(=O)c2cc(OC)c(OC)c(OC)c2)ccc1Oc1nc(NCCO)nc(N2CCOCC2)n1,GI50,LOX IMVI melanoma,0.642 µM
same,TGI,LOX IMVI melanoma,2.04 µM
same,GI50,HOP-92 NSCLC,2.75 µM
same,TGI,HOP-92 NSCLC,9.99 µM
same,GI50,RPMI-8226 leukemia,1.63 µM
same,TGI,RPMI-8226 leukemia,5.85 µM
same,GI50,K-562 leukemia,1.91 µM
same,TGI,K-562 leukemia,> 100 µM
same,GI50,HT29 colon,2.83 µM
same,TGI,HT29 colon,8.44 µM
same,GI50,EKVX NSCLC,2.81 µM
same,TGI,EKVX NSCLC,9.99 µM
same,GI50,HCC-2998 colon,2.23 µM
same,TGI,HCC-2998 colon,4.22 µM
same,GI50,UACC-62 melanoma,1.69 µM
same,TGI,UACC-62 melanoma,3.19 µM
same,GI50,SF-539 CNS,1.88 µM
same,TGI,SF-539 CNS,4.58 µM
same,GI50,A498 renal,3.58 µM
same,TGI,A498 renal,13.3 µM
same,GI50,TK-10 renal,3.12 µM
same,TGI,TK-10 renal,8.93 µM
same,GI50,SNB-19 CNS,2.31 µM
same,TGI,SNB-19 CNS,7.07 µM
same,GI50,SF-295 CNS,2.9 µM
same,TGI,SF-295 CNS,10.6 µM
same,GI50,KM12 colon,2.99 µM
same,TGI,KM12 colon,9.63 µM
same,GI50,HS 578T breast,3.62 µM
same,TGI,HS 578T breast,22.4 µM
same,GI50,HCT-15 colon,1.6 µM
same,TGI,HCT-15 colon,4.01 µM
same,GI50,ACHN renal,1.64 µM
same,TGI,ACHN renal,3.6 µM
same,GI50,NCI-H460 lung,1.87 µM
same,TGI,NCI-H460 lung,4.03 µM
same,GI50,M14 melanoma,2.38 µM
same,TGI,M14 melanoma,7.32 µM
same,GI50,SR leukemia,0.784 µM
same,TGI,SR leukemia,4.8 µM
same,GI50,HL-60(TB) leukemia,1.54 µM
same,TGI,HL-60(TB) leukemia,6.8 µM
same,GI50,IGROV1 ovarian,2.45 µM
same,TGI,IGROV1 ovarian,6.17 µM
same,GI50,NCI-H522 lung,1.56 µM
same,TGI,NCI-H522 lung,3.17 µM
same,GI50,RXF 393 renal,1.75 µM
same,TGI,RXF 393 renal,3.48 µM
same,GI50,OVCAR-5 ovarian,3.14 µM
same,TGI,OVCAR-5 ovarian,10.6 µM
same,GI50,UACC-257 melanoma,2.83 µM
same,TGI,UACC-257 melanoma,12.7 µM
same,GI50,HCT-116 colon,1.53 µM
same,TGI,HCT-116 colon,3.23 µM
same,GI50,MDA-MB-435,3.1 µM
same,TGI,MDA-MB-435,11 µM
same,GI50,DU-145 prostate,2.99 µM
same,TGI,DU-145 prostate,12.4 µM
same,GI50,SK-MEL-2 melanoma,2.76 µM
same,TGI,SK-MEL-2 melanoma,8.19 µM
same,GI50,BT-549 breast,1.6 µM
same,TGI,BT-549 breast,3.32 µM
same,GI50,SF-268 CNS,3.02 µM
same,TGI,SF-268 CNS,12.9 µM
same,GI50,OVCAR-3 ovarian,3.2 µM
same,TGI,OVCAR-3 ovarian,10.6 µM
same,GI50,SK-OV-3 ovarian,2.44 µM
same,TGI,SK-OV-3 ovarian,6.34 µM
same,GI50,PC-3 prostate,3.11 µM
same,TGI,PC-3 prostate,13.5 µM
same,GI50,U251 CNS,1.62 µM
same,TGI,U251 CNS,3.12 µM
same,GI50,CAKI-1 renal,2.43 µM
same,TGI,CAKI-1 renal,9.16 µM
same,GI50,OVCAR-8 ovarian,2.56 µM
same,TGI,OVCAR-8 ovarian,10.1 µM
same,GI50,SN12C renal,1.79 µM
same,TGI,SN12C renal,5.72 µM
same,GI50,SK-MEL-28 melanoma,1.92 µM
same,TGI,SK-MEL-28 melanoma,3.81 µM
same,GI50,HOP-62 NSCLC,2.35 µM
same,TGI,HOP-62 NSCLC,6.04 µM
same,GI50,SW-620 colon,2.24 µM
same,TGI,SW-620 colon,5.78 µM
same,GI50,NCI-H23 lung,1.99 µM
same,TGI,NCI-H23 lung,4.8 µM
same,GI50,CCRF-CEM leukemia,2.38 µM
same,TGI,CCRF-CEM leukemia,23.5 µM
same,GI50,OVCAR-4 ovarian,2.92 µM
same,TGI,OVCAR-4 ovarian,10.5 µM
same,GI50,A549 NSCLC,2.78 µM
same,TGI,A549 NSCLC,9.4 µM
same,GI50,NCI/ADR-RES ovarian,4.72 µM
same,TGI,NCI/ADR-RES ovarian,23.4 µM
same,GI50,T-47D breast,3.12 µM
same,TGI,T-47D breast,11.8 µM
same,GI50,SK-MEL-5 melanoma,1.77 µM
same,TGI,SK-MEL-5 melanoma,3.31 µM
same,GI50,UO-31 renal,1.66 µM
same,TGI,UO-31 renal,3.28 µM
same,GI50,SNB-75 CNS,1.79 µM
same,TGI,SNB-75 CNS,6.2 µM
same,GI50,MALME-3M melanoma,2.67 µM
same,TGI,MALME-3M melanoma,6.74 µM
same,GI50,COLO 205 colon,2.1 µM
same,TGI,COLO 205 colon,4.39 µM
same,GI50,MDA-MB-231 breast,2.86 µM
same,TGI,MDA-MB-231 breast,11.3 µM
same,GI50,MCF7 breast,1.72 µM
same,TGI,MCF7 breast,10.8 µM
same,GI50,MOLT-4 leukemia,1.98 µM
same,TGI,MOLT-4 leukemia,8.02 µM
same,GI50,NCI-H226 lung,3.69 µM
same,TGI,NCI-H226 lung,19.7 µM
same,GI50,786-0 renal,3.46 µM
same,TGI,786-0 renal,13 µM
